This data set deals with CCRIS mutagenicity, Ames/micronucleus/aberration tests. In words: CCRIS mutagenicity studies.
[1] abbreviates: Test System: AMES SALMONELLA TYPHIMURIUM, Strain/Indicator: TA98, Metabolic Activation: NONE, Method: PREINCUBATION
Where [2] appears, read: Test System: AMES SALMONELLA TYPHIMURIUM, Strain/Indicator: TA100, Metabolic Activation: NONE, Method: PREINCUBATION
Setting [3] is: Test System: AMES SALMONELLA TYPHIMURIUM, Strain/Indicator: TA100, Metabolic Activation: RAT, LIVER, S-9, AROCLOR 1254, Method: STANDARD PLATE.
Setting [4] is: Test System: AMES SALMONELLA TYPHIMURIUM, Strain/Indicator: TA100, Metabolic Activation: RAT, LIVER, S-9, PCB, Method: PREINCUBATION
[5] abbreviates: Test System: AMES SALMONELLA TYPHIMURIUM, Strain/Indicator: TA98, Metabolic Activation: NONE, Method: STANDARD PLATE.
Setting [6] is: Test System: AMES SALMONELLA TYPHIMURIUM, Strain/Indicator: TA100, Metabolic Activation: NONE, Method: STANDARD PLATE.

Calls of active or inactive are those of the source. No rule for the calls is given here.

Regarding `OC1C=Cc2c(ccc3c2-c2cccc4cccc-3c24)C1O` (stereo unspecified), the mutagenic call (Test System: AMES SALMONELLA TYPHIMURIUM, Strain/Indicator: TA97A, Metabolic Activation: NONE, Method: PREINCUBATION) is “inactive; negative”; the mutagenic call (Test System: AMES SALMONELLA TYPHIMURIUM, Strain/Indicator: TA97A, Metabolic Activation: RAT, LIVER, S-9, AROCLOR 1254, Method: PREINCUBATION) is “active; positive”; the mutagenic call under setting [1] was “inactive; negative”; the mutagenic call (Test System: AMES SALMONELLA TYPHIMURIUM, Strain/Indicator: TA98, Metabolic Activation: RAT, LIVER, S-9, AROCLOR 1254, Method: PREINCUBATION) was “active; positive”; the mutagenic call under setting [2] is “inactive; negative”; the mutagenic call (Test System: AMES SALMONELLA TYPHIMURIUM, Strain/Indicator: TA100, Metabolic Activation: RAT, LIVER, S-9, AROCLOR 1254, Method: PREINCUBATION) was “active; positive”.
As for `O=C1c2ccccc2-c2ccc3ccc4ccccc4c3c21`, the mutagenic call under setting [3] is “inactive; negative”.
On to `CC(C)=CCC[C@](C)(O)[C@@H]1CC=C(C)CC1`, for which the mutagenic call is, setting by setting: (End Point: AMES SALMONELLA TYPHIMURIUM, Test System: TA97A, Metabolic Activation: NONE, Method: STANDARD PLATE) “inactive; negative”; (End Point: AMES SALMONELLA TYPHIMURIUM, Test System: TA97A, Metabolic Activation: RAT, LIVER, S-9, AROCLOR 1254, Method: STANDARD PLATE) “inactive; negative”; (End Point: AMES SALMONELLA TYPHIMURIUM, Test System: TA98, Metabolic Activation: NONE, Method: STANDARD PLATE) “inactive; negative”; (End Point: AMES SALMONELLA TYPHIMURIUM, Test System: TA98, Metabolic Activation: RAT, LIVER, S-9, AROCLOR 1254, Method: STANDARD PLATE) “inactive; negative”; (End Point: AMES SALMONELLA TYPHIMURIUM, Test System: TA100, Metabolic Activation: NONE, Method: STANDARD PLATE) “inactive; negative”; (End Point: AMES SALMONELLA TYPHIMURIUM, Test System: TA100, Metabolic Activation: RAT, LIVER, S-9, AROCLOR 1254, Method: STANDARD PLATE) “inactive; negative”. Moreover, the mutagenic call is, setting by setting: (End Point: AMES SALMONELLA TYPHIMURIUM, Test System: TA1535, Metabolic Activation: NONE, Method: STANDARD PLATE) “inactive; negative”; (End Point: AMES SALMONELLA TYPHIMURIUM, Test System: TA1535, Metabolic Activation: RAT, LIVER, S-9, AROCLOR 1254, Method: STANDARD PLATE) “inactive; negative”.
With `Cc1ccc2c(c1)C(=O)c1cc(O)ccc1C2=O`, the mutagenic call is “inactive; negative” under setting [1]; “active; positive” (Test System: AMES SALMONELLA TYPHIMURIUM, Strain/Indicator: TA98, Metabolic Activation: RAT, LIVER, S-9, PCB, Method: PREINCUBATION); “active; positive” under setting [2]; “active; positive” under setting [4].
In the case of `O=C1c2c(ccc3ccccc23)-c2ccc3ccccc3c21`, the mutagenic call runs as follows: under setting [5], “inactive; negative”; under setting [6], “inactive; negative”.
In the case of `ClCCC(Br)CBr` (stereo unspecified), the mutagenic call reads like this: (Test System: AMES SALMONELLA TYPHIMURIUM, Strain/Indicator: TA100, Metabolic Activation: RAT, LIVER, MICROSOMES, PHENOBARBITAL, Method: PREINCUBATION) “inactive; negative”; (Test System: AMES SALMONELLA TYPHIMURIUM, Strain/Indicator: TA100, Metabolic Activation: RAT, LIVER, MICROSOMES, Method: PREINCUBATION) “inactive; negative”.
Take `CCN(CC)c1ccc(N=O)cc1`: the mutagenic call (Test System: AMES SALMONELLA TYPHIMURIUM, Strain/Indicator: TA100, Metabolic Activation: NONE, Method: FLUCTUATION TEST) is “active; positive”.
As to `CC(C)(C)NCC(O)COc1cccc2c1CCCC2=O` (stereo unspecified), the mutagenic call runs as follows: under setting [5], “inactive; negative”; (Test System: AMES SALMONELLA TYPHIMURIUM, Strain/Indicator: TA98, Metabolic Activation: RAT, LIVER, S-9, AROCLOR 1254, Method: STANDARD PLATE) “inactive; negative”; under setting [6], “inactive; negative”; under setting [3], “inactive; negative”.
On to `NC(=NCCCCCCN=C(N)/N=C(\N)Nc1ccc(Cl)cc1)/N=C(\N)Nc1ccc(Cl)cc1`, for which the mutagenic call is, setting by setting: (End Point: IN VITRO CHROMOSOMAL ABERRATIONS, Test System: SYRIAN HAMSTER EMBRYO (SHE) CELLS, Metabolic Activation: NONE) “inactive; negative; toxic at 10 um”; (End Point: IN VITRO CHROMOSOMAL ABERRATIONS, Test System: SYRIAN HAMSTER EMBRYO (SHE) CELLS, Metabolic Activation: RAT, LIVER, S-9) “inactive; negative”.
`CC(C)[C@@](O)(C(=O)OC[C@@H]1CCN2CCC[C@H]12)[C@@H](C)O`: the mutagenic call (Test System: AMES SALMONELLA TYPHIMURIUM, Strain/Indicator: TA100, Metabolic Activation: HAMSTER, LIVER, S-9, PCB, Method: PREINCUBATION) was “inactive; negative” and the mutagenic call under setting [4] is “inactive; negative”.
Turning to `CC(=O)Nc1nnc(-c2ccc([N+](=O)[O-])o2)s1`, the mutagenic call (Test System: AMES SALMONELLA TYPHIMURIUM, Strain/Indicator: TA100, Metabolic Activation: RAT, LIVER, S-9, KC500 OR PHENOBARBITAL, Method: LIQUID SUSPENSION) is “active; positive”.
Regarding `CC(=O)c1ccncc1`, the mutagenic call is, setting by setting: (End Point: IN VITRO CHROMOSOMAL ABERRATIONS, Test System: CHO-LB CELLS, Metabolic Activation: RAT, LIVER, S-9, AROCLOR 1254) “active; positive”; (Test System: AMES SALMONELLA TYPHIMURIUM, Strain/Indicator: TA97, Metabolic Activation: HAMSTER, LIVER, S-9, AROCLOR 1254 (10 OR 30%), Method: PREINCUBATION) “inactive; negative”; (Test System: AMES SALMONELLA TYPHIMURIUM, Strain/Indicator: TA97, Metabolic Activation: NONE, Method: PREINCUBATION) “inactive; negative”; (Test System: AMES SALMONELLA TYPHIMURIUM, Strain/Indicator: TA97, Metabolic Activation: RAT, LIVER, S-9, AROCLOR 1254 (10 OR 30%), Method: PREINCUBATION) “inactive; negative”; (Test System: AMES SALMONELLA TYPHIMURIUM, Strain/Indicator: TA98, Metabolic Activation: HAMSTER, LIVER, S-9, AROCLOR 1254 (10 OR 30%), Method: PREINCUBATION) “inactive; negative”; under setting [1], “inactive; negative”. The mutagenic call by setting is: (Test System: AMES SALMONELLA TYPHIMURIUM, Strain/Indicator: TA98, Metabolic Activation: RAT, LIVER, S-9, AROCLOR 1254 (10 OR 30%), Method: PREINCUBATION) “inactive; negative”; (Test System: AMES SALMONELLA TYPHIMURIUM, Strain/Indicator: TA100, Metabolic Activation: HAMSTER, LIVER, S-9, AROCLOR 1254 (10 OR 30%), Method: PREINCUBATION) “inactive; negative”; under setting [2], “inactive; negative”; (Test System: AMES SALMONELLA TYPHIMURIUM, Strain/Indicator: TA100, Metabolic Activation: RAT, LIVER, S-9, AROCLOR 1254 (10 OR 30%), Method: PREINCUBATION) “inactive; negative”; (Test System: AMES SALMONELLA TYPHIMURIUM, Strain/Indicator: TA1535, Metabolic Activation: HAMSTER, LIVER, S-9, AROCLOR 1254 (10 OR 30%), Method: PREINCUBATION) “inactive; negative”; (Test System: AMES SALMONELLA TYPHIMURIUM, Strain/Indicator: TA1535, Metabolic Activation: NONE, Method: PREINCUBATION) “inactive; negative”. In addition, the mutagenic call (Test System: AMES SALMONELLA TYPHIMURIUM, Strain/Indicator: TA1535, Metabolic Activation: RAT, LIVER, S-9, AROCLOR 1254 (10 OR 30%), Method: PREINCUBATION) was “inactive; negative”.
As to `Fc1ccc(Br)cc1`, the mutagenic call reads like this: (Test System: Mouse lymphoma, Strain/Indicator: L5178Y (tk+/tk-), Metabolic Activation: None, Method: Suspension/plate) “inconclusive”; (Test System: Mouse lymphoma, Strain/Indicator: L5178Y (tk+/tk-), Metabolic Activation: Rat, Liver, S-9, Aroclor 1254, Method: Suspension/plate) “inconclusive”.
Consider `Cc1ccc(S(=O)(=O)OCc2ccc([N+](=O)[O-])cc2)cc1`, for which, under setting [6], the mutagenic call was “active; positive”.
As to `O[C@H]1C=Cc2cccc3c2[C@@]1(O)c1ccccc1-3`, the mutagenic call runs as follows: (Test System: AMES SALMONELLA TYPHIMURIUM, Strain/Indicator: TM677, Metabolic Activation: NONE, Method: PREINCUBATION) “inactive; negative”; (Test System: AMES SALMONELLA TYPHIMURIUM, Strain/Indicator: TM677, Metabolic Activation: RAT, LIVER, POSTMITOCHONDRIAL SUPERNATANT, AROCLOR 1254, Method: PREINCUBATION) “inactive; negative”.

These data come from PubChem BioAssay AID1259407 (Chemical Carcinogenesis Research Information System (CCRIS), 2018).
